PubChem BioAssay (NCI)
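48-hour exposure; five concentrations; linearly interpolated endpoints. GI50 marks 50% less growth. Definition used: TGI = concentration required for complete inhibition of growth.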

How the values were obtained:
Assay in all cases: NCI tumour cell line growth inhibition, 48 h
OVCAR-4 ovarian = test system: OVCAR-4 ovarian
NCI/ADR-RES ovarian = test system: NCI/ADR-RES ovarian
HS 578T breast = test system: HS 578T breast
OVCAR-5 ovarian = test system: OVCAR-5 ovarian
SN12C renal = test system: SN12C renal
MCF7 breast = test system: MCF7 breast
SNB-75 CNS = test system: SNB-75 CNS
UACC-62 melanoma = test system: UACC-62 melanoma
HCT-15 colon = test system: HCT-15 colon
SK-MEL-28 melanoma = test system: SK-MEL-28 melanoma
NCI-H23 lung = test system: NCI-H23 lung
K-562 leukemia = test system: K-562 leukemia
HL-60(TB) leukemia = test system: HL-60(TB) leukemia
SK-MEL-5 melanoma = test system: SK-MEL-5 melanoma
786-0 renal = test system: 786-0 renal
SK-MEL-2 melanoma = test system: SK-MEL-2 melanoma
PC-3 prostate = test system: PC-3 prostate
A498 renal = test system: A498 renal
UACC-257 melanoma = test system: UACC-257 melanoma
CCRF-CEM leukemia = test system: CCRF-CEM leukemia
SW-620 colon = test system: SW-620 colon
MDA-MB-231 breast = test system: MDA-MB-231 breast
OVCAR-3 ovarian = test system: OVCAR-3 ovarian
HCC-2998 colon = test system: HCC-2998 colon
SNB-19 CNS = test system: SNB-19 CNS
ACHN renal = test system: ACHN renal
COLO 205 colon = test system: COLO 205 colon
SK-OV-3 ovarian = test system: SK-OV-3 ovarian
CAKI-1 renal = test system: CAKI-1 renal
BT-549 breast = test system: BT-549 breast
M14 melanoma = test system: M14 melanoma
EKVX NSCLC = test system: EKVX NSCLC
T-47D breast = test system: T-47D breast
HOP-62 NSCLC = test system: HOP-62 NSCLC
MOLT-4 leukemia = test system: MOLT-4 leukemia
SF-539 CNS = test system: SF-539 CNS
NCI-H522 lung = test system: NCI-H522 lung
NCI-H226 lung = test system: NCI-H226 lung
SR leukemia = test system: SR leukemia
MDA-MB-435 = test system: MDA-MB-435
IGROV1 ovarian = test system: IGROV1 ovarian
HOP-92 NSCLC = test system: HOP-92 NSCLC
U251 CNS = test system: U251 CNS
NCI-H460 lung = test system: NCI-H460 lung
RXF 393 renal = test system: RXF 393 renal
RPMI-8226 leukemia = test system: RPMI-8226 leukemia
LOX IMVI melanoma = test system: LOX IMVI melanoma
SF-268 CNS = test system: SF-268 CNS
OVCAR-8 ovarian = test system: OVCAR-8 ovarian
HCT-116 colon = test system: HCT-116 colon
UO-31 renal = test system: UO-31 renal
A549 NSCLC = test system: A549 NSCLC
KM12 colon = test system: KM12 colon
DU-145 prostate = test system: DU-145 prostate
TK-10 renal = test system: TK-10 renal

SMILES: O=[N+]([O-])c1cc(S(=O)(=O)Oc2ccccc2)ccc1Cl
- GI50 (OVCAR-4 ovarian): 1.75 µM
- TGI (OVCAR-4 ovarian): 3.2 µM
- GI50 (NCI/ADR-RES ovarian): 8.27 µM
- TGI (NCI/ADR-RES ovarian): 45.3 µM
- GI50 (HS 578T breast): 2.7 µM
- TGI (HS 578T breast): 6.73 µM
- GI50 (OVCAR-5 ovarian): 2.29 µM
- TGI (OVCAR-5 ovarian): 5.17 µM
- GI50 (SN12C renal): 3.56 µM
- TGI (SN12C renal): 13.6 µM
- GI50 (MCF7 breast): 2.06 µM
- TGI (MCF7 breast): 4.31 µM
- GI50 (SNB-75 CNS): 2.54 µM
- TGI (SNB-75 CNS): 6.5 µM
- GI50 (UACC-62 melanoma): 3.55 µM
- TGI (UACC-62 melanoma): 13.5 µM
- GI50 (HCT-15 colon): 3.56 µM
- TGI (HCT-15 colon): 12.5 µM
- GI50 (SK-MEL-28 melanoma): 2.67 µM
- TGI (SK-MEL-28 melanoma): 6.4 µM
- GI50 (NCI-H23 lung): 16.5 µM
- TGI (NCI-H23 lung): 37.9 µM
- GI50 (K-562 leukemia): 0.432 µM
- TGI (K-562 leukemia): > 100 µM
- GI50 (HL-60(TB) leukemia): 1.92 µM
- TGI (HL-60(TB) leukemia): 6.84 µM
- GI50 (SK-MEL-5 melanoma): 4.06 µM
- TGI (SK-MEL-5 melanoma): 15 µM
- GI50 (786-0 renal): 4.65 µM
- TGI (786-0 renal): 15.5 µM
- GI50 (SK-MEL-2 melanoma): 10.7 µM
- TGI (SK-MEL-2 melanoma): 26.1 µM
- GI50 (PC-3 prostate): 2.05 µM
- TGI (PC-3 prostate): 4.45 µM
- GI50 (A498 renal): 1.68 µM
- TGI (A498 renal): 4.05 µM
- GI50 (UACC-257 melanoma): 1.6 µM
- TGI (UACC-257 melanoma): 3.1 µM
- GI50 (CCRF-CEM leukemia): 0.594 µM
- TGI (CCRF-CEM leukemia): 3.53 µM
- GI50 (SW-620 colon): 1.56 µM
- TGI (SW-620 colon): 3.59 µM
- GI50 (MDA-MB-231 breast): 3.89 µM
- TGI (MDA-MB-231 breast): 16.2 µM
- GI50 (OVCAR-3 ovarian): 1.49 µM
- TGI (OVCAR-3 ovarian): 2.85 µM
- GI50 (HCC-2998 colon): 1.74 µM
- TGI (HCC-2998 colon): 3.33 µM
- GI50 (SNB-19 CNS): 3.11 µM
- TGI (SNB-19 CNS): 11.1 µM
- GI50 (ACHN renal): 3.22 µM
- TGI (ACHN renal): 9.05 µM
- GI50 (COLO 205 colon): 3.85 µM
- TGI (COLO 205 colon): 14.4 µM
- GI50 (SK-OV-3 ovarian): 6.21 µM
- TGI (SK-OV-3 ovarian): 18.8 µM
- GI50 (CAKI-1 renal): 1.53 µM
- TGI (CAKI-1 renal): 2.89 µM
- GI50 (BT-549 breast): 5.43 µM
- TGI (BT-549 breast): 17 µM
- GI50 (M14 melanoma): 2.06 µM
- TGI (M14 melanoma): 4.28 µM
- GI50 (EKVX NSCLC): 1.99 µM
- TGI (EKVX NSCLC): 4.07 µM
- GI50 (T-47D breast): 2.21 µM
- TGI (T-47D breast): 5.38 µM
- GI50 (HOP-62 NSCLC): 6.06 µM
- TGI (HOP-62 NSCLC): 19.2 µM
- GI50 (MOLT-4 leukemia): 2.17 µM
- TGI (MOLT-4 leukemia): 45.1 µM
- GI50 (SF-539 CNS): 3.52 µM
- TGI (SF-539 CNS): 10.4 µM
- GI50 (NCI-H522 lung): 1.99 µM
- TGI (NCI-H522 lung): 3.62 µM
- GI50 (NCI-H226 lung): 7.71 µM
- TGI (NCI-H226 lung): 21.1 µM
- GI50 (SR leukemia): 0.421 µM
- TGI (SR leukemia): 5.8 µM
- GI50 (MDA-MB-435): 1.64 µM
- TGI (MDA-MB-435): 3.09 µM
- GI50 (IGROV1 ovarian): 1.77 µM
- TGI (IGROV1 ovarian): 3.22 µM
- GI50 (HOP-92 NSCLC): 1.75 µM
- TGI (HOP-92 NSCLC): 3.39 µM
- GI50 (U251 CNS): 1.27 µM
- TGI (U251 CNS): 2.6 µM
- GI50 (NCI-H460 lung): 2.04 µM
- TGI (NCI-H460 lung): 4.06 µM
- GI50 (RXF 393 renal): 5.57 µM
- TGI (RXF 393 renal): 17.7 µM
- GI50 (RPMI-8226 leukemia): 3.33 µM
- TGI (RPMI-8226 leukemia): 8.29 µM
- GI50 (LOX IMVI melanoma): 1.78 µM
- TGI (LOX IMVI melanoma): 3.69 µM
- GI50 (SF-268 CNS): 1.83 µM
- TGI (SF-268 CNS): 3.4 µM
- GI50 (OVCAR-8 ovarian): 5.15 µM
- TGI (OVCAR-8 ovarian): 19.7 µM
- GI50 (HCT-116 colon): 1.85 µM
- TGI (HCT-116 colon): 3.43 µM
- GI50 (UO-31 renal): 1.75 µM
- TGI (UO-31 renal): 3.17 µM
- GI50 (A549 NSCLC): 3.43 µM
- TGI (A549 NSCLC): 14.5 µM
- GI50 (KM12 colon): 1.47 µM
- TGI (KM12 colon): 2.89 µM
- GI50 (DU-145 prostate): 1.83 µM
- TGI (DU-145 prostate): 3.24 µM
- GI50 (TK-10 renal): 12.5 µM
- TGI (TK-10 renal): 25.1 µM
